Measured values reported in article PMC8865654, “Chiral evasion and stereospecific antifolate resistance in Staphylococcus aureus” (PLoS Computational Biology, 2022).

How the values were obtained:
[1] = target: T1, Staphylococcus aureus dihydrofolate reductase (SaDHFR), wild type (Staphylococcus aureus, UniProt P0A017); assay: X-ray crystal structure (re-refined from 4XEC data and newly deposited); also enzyme inhibition with t-NADPH pre-incubation (Fig E in S1 Text); format: binding
T1 construct: gene folA

[2] = target: T1, Staphylococcus aureus dihydrofolate reductase (SaDHFR), wild type; assay: X-ray crystal structure (ternary with R-27); enzyme inhibition assay with isolated t-NADPH; format: biochemical

T1 sequence (P0A017 2-159): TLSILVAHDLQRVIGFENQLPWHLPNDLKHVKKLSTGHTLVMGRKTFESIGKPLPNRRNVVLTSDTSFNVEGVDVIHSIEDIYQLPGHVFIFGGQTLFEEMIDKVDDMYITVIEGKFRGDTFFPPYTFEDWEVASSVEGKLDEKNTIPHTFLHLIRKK

| Compound | X-ray crystal structure (re-refined from 4XEC data and newly deposited); also en [1] | IC50 [2] [µM] |
| --- | --- | --- |
| CCc1nc(N)nc(N)c1C#C[C@H](C)c1cc(OC)cc(-c2ccncc2)c1 [R-27] | the PDB ID for R-27:t-NADPH:SaDHFR is 7T7S |  |
| NC(=O)C1=CN2[C@@H]3O[C@H](COP(=O)(O)OP(=O)(O)OC[C@H]4O[C@@H](n5cnc6c(N)ncnc65)[C@H](OP(=O)(O)O)[C@@H]4O)[C@@H](O)[C@H]3O[C@@H]2CC1 [t-NADPH] |  | 111 ± 6 |
